{"source": "patent US12090164B2", "about": "“Genotype-agnostic rescue of cystic fibrosis with small molecule bicarbonate channels” (The Board of Trustees of the University of Illinois, priority 2017, dated 2024)", "key": {"[1]": {"test_system": "CuFi-1 (ΔF508/ΔF508) epithelia", "assay": "Ussing chamber short-circuit current response to CFTR activation", "format": "cell-based, human", "conditions": "AmB 2 μM, 48 h", "protocol": "To assess the presence of membrane-expressed CFTR, differentiated cultures of NuLi and CuFi-1 epithelia grown on Corning Costar 0.4 μm 24-well plate Transwell Clear Polyester Membrane inserts were used. NuLi and CuFi-1 epithelia were treated with 20 μL of perfluorocarbon (FC-72, Sigma) vehicle or 2 μM amphotericin B (AmB) sonicated into a suspension in FC-72. After 48 hours of incubation, the epithelia were mounted in a dual-channel Ussing chamber (Warner U2500) using the culture cup insert for Transwell adapter, 6.5 mm (Warner U9924T-06) and bathed on both the apical and basolateral sides with a HCO3^− solution (120 mM NaCl, 25 mM NaHCO3, 5 mM KCl, 2 mM CaC2, 1.2 mM MgC2, 13.75 mM NaH2PO4, pH 7.0) at 37° C. and gassed with compressed air. Dextrose was added to this solution immediately prior to experiments to a final concentration of 5.6 mM. Epithelial sodium channel (ENaC) and calcium-activated chloride channel (CaCC) were inhibited by apical addition of 1 μM amiloride and 1 μM DIDS (4,4′-disothiocyanostilbene-2,2′-disulfonic acid), respectively, to achieve a baseline for permeabilization. 10 μM forskolin/100 μM IBMX (3-isobutyl-1-methylxanthine) added apically was used to activate CFTR, and 1 μM CFTRinh-172 was used to inhibit CFTR. Each successive addition of reagent was allowed approximately 10 minutes to equilibrate before the addition of the next reagent (15)."}, "[2]": {"test_system": "CuFi-1 (ΔF508/ΔF508) airway epithelia", "assay": "Ussing chamber permeabilization of differentiated CF airway epithelia", "format": "cell-based, human", "conditions": "differentiated CuFi-1 epithelia", "protocol": "A series of natural products and synthetic compounds reported previously to permeabilize liposomes, cells, and/or nasal epithelia of mice to anions (11-14) were tested using an Ussing chamber and differentiated cultures of airway epithelia derived from an immortalized airway epithelial cell line from a CF patient having the most common ΔF508/ΔF508 genotype (CuFi-1) (15). […] The capacity for AmB and C35deOAmB to transport bicarbonate across cholesterol-containing POPC liposomes was tested using an adapted ^13C NMR-based assay (18)."}, "yeast": {"test_system": "yeast", "conditions": "cited from earlier work"}, "Staphylococcus aureus": {"test_system": "Staphylococcus aureus", "assay": "Direct killing of S. aureus by AmB alone", "format": "cell-based", "conditions": "AmB 2 μM alone vs saline", "protocol": "Staphylococcus aureus-coated gold grids were used to measure antibacterial activity of airway epithelial cultures (3, 4). Small diameter primary cultured epithelia were used for this experiment (0.33 cm^2). Bacteria-coated gold TEM grids were placed onto the apical surface of airway epithelia for 1 min after 48 hours of perfluorocarbon (FC-72, Sigma), 2 μM AmB, or 2 μM C35deOAmB treatment. As controls, bacteria-coated grids were also placed in saline or AmB in FC-72 laid over saline to simulate the administration method for 1 minute. After removal, bacteria on the grids were assessed for viability using Live/Dead BacLight Bacterial Viability assay (Invitrogen). Viability was determined in 4-6 fields to determine the percentages of dead bacteria."}, "[3]": {"test_system": "CuFi-1 epithelial monolayers", "assay": "pH-stat titration of apical alkalinization", "format": "cell-based, human", "conditions": "AmB 0.5, 1, 2 μM", "protocol": "Large diameter NuLi and CuFi-1 cultured epithelia were used for this experiment (4.67 cm^2). These cultures were mounted in a dual-channel Ussing chamber (Warner U2500) using the culture cup insert for Transwell adapter, 24 mm (U9924T-24). The membranes were bathed at 37° C. on the apical side with a buffer-free solution (140 mM NaCl, 2 mM KCl, 2 mM CaCl2), and 1 mM MgCl2, 15 mM dextrose, gassed with air) and on the basolateral side with either a HCO3^− buffer (120 mM NaCl, 25 mM NaHCO3, 5 mM KCl, 2 mM CaC2, 1.2 mM MgCl2, 13.75 NaH2PO4, 5.6 mM dextrose, pH adjusted to 7.0) or a HCO3^−-free buffer (140 mM NaCl, 2 mM KCl, 2 mM CaCl2), 1 mM MgCl2, 10 mM HEPES, 5 mM dextrose, pH adjusted to 7.0). A microdiameter pH electrode (89231-590) and temperature probe (Radiometer Analytical T201 Temperature Sensor, E51M001) and titration burette attached to a Hach TIM856 NB pH/EP/Stat pH-STAT Titrator (R41T028) were inserted into the apical chamber. The basolateral chamber was covered with the chamber lid to prevent gas exchange. […]\nThe apical pH was titrated to a target pH of 6.0 using 1 mM HCl as titrant (min speed 0.25 mL/min, max speed 0.35 mL/min) (28, 57-59). Acid titration was measured over 20 minutes to establish a baseline value for the cultured epithelia […]. […] Acid titration was then measured over another 20 minutes to evaluate AmB-mediated pH change in the apical solution. […]"}, "[4]": {"test_system": "CuFi-1 (ΔF508/ΔF508) epithelia", "assay": "Basolateral to apical H14CO3- transport", "format": "cell-based, human", "protocol": "(§1) Small diameter NuLi and CuFi cultured epithelia were used for this experiment (0.33 cm^2). ^14C-labeled sodium HCO3^− was obtained as a sterile 35.7 mM aqueous solution pH 9.5 (MP Biomedicals 0117441H). All experiments were run less than 2 months post seeding. Fresh USG media was added to the basolateral side prior to experimentation. The apical membrane was treated with 20 μL of vehicle, AmB, or ivacaftor/forskolin as a suspension in perfluorocarbon-72 (Sigma Aldrich), and the cultured epithelia were incubated for 48 hours, 7 days, 14 days, or 28 days at 37° C. in a 5% C02 atmosphere. After the end of the treatment period, 5 μL of a 1.4 mM H^14CO3^− stock solution in USG media was added to the basolateral media. The cultured epithelia were then incubated at 37° C. for 10 minutes. After 10 minutes, the apical membrane of the cultured epithelia was immediately washed with 200 μL of PBS. The ASL wash and a 200 μL aliquot of the basolateral media were diluted in scintillation cocktail and analyzed via liquid scintillation counting (23)."}, "[5]": {"test_system": "CuFi-4 (G551D/ΔF508) epithelia", "assay": "Basolateral to apical H14CO3- transport", "format": "cell-based, human", "conditions": "AmB 2 μM, ivacaftor/forskolin 10 μM", "protocol": "as §1"}}, "note": "Entries after “also recorded” stand apart in the source; their conditions may differ.", "data": [{"smiles": "C[C@@H]1[C@H](O)[C@@H](C)/C=C/C=C/C=C/C=C/C=C/C=C/C=C/[C@H](O[C@@H]2O[C@H](C)[C@@H](O)[C@H](N)[C@@H]2O)C[C@@H]2O[C@](O)(C[C@@H](O)C[C@@H](O)[C@H](O)CC[C@@H](O)C[C@@H](O)CC(=O)O[C@H]1C)C[C@H](O)[C@H]2C(=O)O", "note": "[AmB, amphotericin B]", "values": [{"measurement": "short circuit current response to forskolin/IBMX of AmB-treated epithelia", "setting": "[1]", "result": "did not show an increase in short circuit current in response to forskolin/IBMX; also recorded: did not respond to chemical activation of CFTR"}, {"measurement": "change in short circuit current / permeabilization of epithelia", "setting": "[2]", "result": "exceptionally effective in causing a change in short circuit current"}, {"measurement": "toxicity / fungicidal activity to yeast", "setting": "yeast", "result": "highly toxic to yeast"}, {"measurement": "direct antibacterial activity against S. aureus", "setting": "Staphylococcus aureus", "result": "insensitive to direct killing by AmB; also recorded: does not have antibacterial activity against S. aureus"}, {"measurement": "rate of apical alkalinization, bicarbonate free basolateral buffer", "setting": "[3]; HCO3−-free buffer", "result": "no change in rate of apical alkalinization was observed with any tested concentration of AmB; also recorded: not in the absence of basolateral bicarbonate"}, {"measurement": "rate of apical chamber alkalinization, basolateral bicarbonate present", "setting": "[3]; basolateral bicarbonate 25 mM", "result": "increased the rate of apical chamber alkalization of CuFi-1 epithelia in a dose-dependent fashion; also recorded: dose-dependent increase in ASL pH"}, {"measurement": "time for which increase in H^14CO3^− secretion is sustained", "setting": "[4]; AmB 2 μM left on epithelia", "result": "at least 7 days"}, {"measurement": "basolateral to apical H^14CO3^− transport, apical addition", "setting": "[4]; over 10 minutes, AmB or C35deOAmB 2 μM, ivacaftor/forskolin 10 μM", "result": "restored normal bicarbonate transport; also recorded: increased the rate of ^14C bicarbonate to match that observed in NuLi epithelia; also recorded: effective in both genotypes; also recorded: increased both"}, {"measurement": "H^14CO3^− transepithelial transport", "setting": "[5]", "result": "increase H^14CO3-transepithelial transport; also recorded: effective in both genotypes; also recorded: the same increase in rate of bicarbonate efflux; also recorded: increased ASL pH and H^14CO3^− secretion"}]}]}
